In brackets after ≈: the same amount, converted by molar mass. Several values for one entry are separate records, joined by “and”; a condition that tells them apart may be missing. Equal entries are not always repeated.
Columns and labels:
HSV-1 TK = target: T1, HSV-1 TK (Human herpesvirus 1, UniProt P0DTH5); assay: Competitive inhibition of [3H]-thymidine phosphorylation by partially purified HSV-1 TK; format: biochemical
T1 construct: HSV thymidine kinase (HSV TK) was isolated from HELA (BU25) cells infected with the SW148 strain of HSV-1; made in house; host or cells: HeLa (BU25) thymidine-kinase-deficient cells infected with HSV-1 strain S148/SW148
Procedure: The Ki's were determined from a plot of the slope of each line versus the concentration of the competitor (D-, L, or D,L-2'CdG) and are summarized below: TABLE 2

HSV-1 (strain 377, TK+) = assay: Antiviral activity against HSV-1; format: cell-based; conditions: for VR / EC50: HSV-1, range of tests; for EC50: Human alphaherpesvirus 1, read-out: Mic50
Procedure: (§1) D-2'-CdG and L-2'-CdG were tested, alongside D,L-2'-CdG, against both HSV-1 (strain 377, TK+; obtained from Dr. Earl Kern, University of Alabama) and HSV-2 (strain MS, TK+; also obtained from Dr. Earl Kern). In these tests (Table 5), Ara-A and acyclovir (ACV) were the positive control drugs. In four tests vs. HSV-1, the antiviral activity (VR) and potency (MIC50) of D-2'-CdG were approximately the same as those of racemic 2-CdG. L-2'-CdG was only modestly active.

HSV-2 (strain MS, TK+) = assay: Antiviral activity against HSV-2; format: cell-based; conditions: HSV-2; for EC50: Human alphaherpesvirus 2, read-out: Mic50
Procedure: as §1
These compounds were tested against HSV-2(TK^+). The VR of ACV was somewhat higher than the VR values of D-2'-CdG and D,L-2'-CdG, but the values of MIC50 of the two forms of 2'-CdG were lower. In addition, experiments comparing the antiviral activity D-2'-CdG with acyclovir against HSV-1 in human foreskin fibroblasts have shown an even greater potency, in favor of D-2'-CdG.

CMV = CMV yield reduction in MRC5 cell monolayer cultures (plaque assay); format: cell-based, human CMV; conditions: for CMV Yield: virus control 5.5
Procedure: (§2) The D- and L-enantiomers of 2'-CdG were prepared from racemic C-2,6-DAPR by an enzymatic method as described above Secrist et al. (J. Med. Chem. 30:746, 1987). The effectiveness of racemic-2'-CdG and of D-2'-CdG in reducing CMV yields in MRC5 cell monolayer cultures was determined by a plaque assay with the results set forth in tables 6 and 7.

[1] = system: MRC5 cell monolayer cultures; assay: Drug cytotoxicity (gross morphology) in MRC5 cell monolayer cultures; format: cell-based
Procedure: as §2

HBV = HBV DNA production and replication in 2.2.15 cell cultures; format: cell-based, Hepatitis B virus (HBV); conditions: for INTRACELLULAR HBV DNA INTEG. / INTRACELLULAR HBV DNA MONO. / INTRACELLULAR HBV DNA RI: 24 hours following 10th day of treatment; for HBV DNA IN CULTURE MEDIUM DAY 0: day 0 of treatment
Procedure: 2'-CdG was tested at three concentrations (50 ng/ml, 500 ng/ml, and 5 ug/ml) against the HBV-producing, human liver cell line, 2.2.15 (Sells et al., J. Virol. 62:2836, 1989). A racemic (D,L) preparation, as well as the purified D and L isomers were tested. For these analyses compounds were tested in duplicate at all concentrations. Ara-AMP and ddG (2'3'-dideoxyguanosine) were used as HBV inhibitory control compounds. […] The nucleoside analog, ddG was used as an additional control compound since ddG has activity against duck hepatitis B virus in chronically infected Peking ducks (Lee et al., Antimicrob. Agents Chemother. 33:336, 1989) and 2'-CdG is also a deoxyguanosine analog.
2.2.15 cells were seeded in 6 well culture plates and grown to confluence over a 10 day period in medium with 5% FBS. Test compounds were then added daily for a continuous 10 day period in medium with 1% dialyzed FBS. […] Compounds were tested, in duplicate cultures, at 3 concentrations covering a 100-fold range. Culture medium (changed daily during the treatment period) was collected and stored for analysis of extracellular (virion) HBV DNA from days 0, 3, 6, and 10 of the treatment period. This allowed for an analysis of the level of HBV virion production during discrete 24 hour intervals and reduced the potential for the buildup of toxic metabolites derived from the test compounds. Treated cells were lysed following the 10th day of treatment for the analysis of intracellular HBV genomic forms. HBV DNA was analyzed in a quantitative manner for (i) overall levels (both extracellular and intracellular DNA) and (ii) the relative rate of HBV replication (intracellular DNA only).
HBV DNA levels were measured by comparison to known amounts of HBV DNA standards applied to every nitrocellulose filter (gel or slot blot) using an AMBIS Beta Scanner. Standard curves, generated by multiple analyses, were used to correlate CPM measurements with relative levels of target HBV DNA. The levels of HBV DNA in each of three classes of intracellular viral genomic forms were individually quantitated: integrated HBV DNA, episomal monomeric genomes and HBV DNA replication intermediates (RI). Integrated HBV DNA was used to normalize the relative amounts of DNA in each lane because the levels of this class of HBV DNA would be expected to remain constant on a per cell basis. The levels of the monomeric HBV genomes and RI were used as an indicator of the relative level of HBV replication.

[2] = system: MRC5 cell monolayer cultures; assay: Drug cytotoxicity (gross morphology) in MRC5 cell monolayer cultures; format: cell-based; remark: listed apart in the source

T1 sequence (P0DTH5 whole entry): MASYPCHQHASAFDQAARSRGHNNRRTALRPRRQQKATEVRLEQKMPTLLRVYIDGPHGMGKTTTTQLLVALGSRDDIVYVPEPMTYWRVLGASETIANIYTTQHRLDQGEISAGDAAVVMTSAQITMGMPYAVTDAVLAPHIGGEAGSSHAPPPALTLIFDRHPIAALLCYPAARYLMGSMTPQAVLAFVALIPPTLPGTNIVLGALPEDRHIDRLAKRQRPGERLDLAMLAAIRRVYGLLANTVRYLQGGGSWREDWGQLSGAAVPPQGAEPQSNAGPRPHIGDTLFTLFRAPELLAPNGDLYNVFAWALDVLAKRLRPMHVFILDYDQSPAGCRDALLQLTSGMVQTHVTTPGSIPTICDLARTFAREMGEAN

Compound: Nc1nc2c(ncn2[C@@H]2C[C@H](CO)[C@@H](O)C2)c(=O)[nH]1 (racemic) [D,L-2'-CdG, (±)-2-amino-1,9-dihydro-[(1α,3β,4α)-3-hydroxy-4(hydroxymethyl)cyclopentyl]-6H-purin-6-one]
- Ki (HSV-1 TK): 3 µM
- VR (HSV-1 (strain 377, TK+)): 5.3-7.0
- EC50 (HSV-1 (strain 377, TK+)): 0.2 to 0.3 µg/mL (≈ 0.754 to 1.13 µM)
- potency relative to ACV (HSV-1 (strain 377, TK+); more potent than ACV): 5-10 times
- VR (HSV-2 (strain MS, TK+)): 3.7
- EC50 (HSV-2 (strain MS, TK+)): 2.6 µg/mL (≈ 9.8 µM)
- CMV Yield (CMV; 0.032 µg/mL): 5.4 log10CCID50/mL
- CMV Yield (CMV; 0.1 µg/mL): 5.0 log10CCID50/mL
- CMV Yield (CMV; 0.32 µg/mL): 4.5 log10CCID50/mL
- CMV Yield (CMV; 1.0 µg/mL): 3.6 log10CCID50/mL
- CMV Yield (CMV; 3.2 µg/mL): 1.0 log10CCID50/mL
- CMV Yield (CMV; 10 µg/mL): 0 log10CCID50/mL
- inhibition at 0.032 µg/mL (CMV; Human betaherpesvirus 5, MRC5, 0.032 µg/mL, read-out: Reduction (%) of CPE by CdG at Time of Harvest): 0%
- inhibition at 0.1 µg/mL (CMV; Human betaherpesvirus 5, MRC5, 0.1 µg/mL, read-out: Reduction (%) of CPE by CdG at Time of Harvest): 0%
- inhibition at 0.32 µg/mL (CMV; Human betaherpesvirus 5, MRC5, 0.32 µg/mL, read-out: Reduction (%) of CPE by CdG at Time of Harvest): 20%
- inhibition at 1 µg/mL (CMV; Human betaherpesvirus 5, MRC5, 1.0 µg/mL, read-out: Reduction (%) of CPE by CdG at Time of Harvest): 95%
- inhibition at 3.2 µg/mL (CMV; Human betaherpesvirus 5, MRC5, 3.2 µg/mL, read-out: Reduction (%) of CPE by CdG at Time of Harvest): 100%
- inhibition at 10 µg/mL (CMV; Human betaherpesvirus 5, MRC5, 10 µg/mL, read-out: Reduction (%) of CPE by CdG at Time of Harvest): 100%
- EC50 (CMV; Human betaherpesvirus 5, MRC5 cells, read-out: MIC50): 0.069 µg/mL (≈ 0.26 µM)
- Drug Cytotoxicity (Gross Morphology) ([1]; 0.032 µg/mL): 0
- Drug Cytotoxicity (Gross Morphology) ([1]; 0.1 µg/mL): 0
- Drug Cytotoxicity (Gross Morphology) ([1]; 1.0 µg/mL): 0
- Drug Cytotoxicity (Gross Morphology) ([1]; 32 µg/mL): toxic
- INTRACELLULAR HBV DNA INTEG. (HBV; 50ng/ml): 1.3 PG/UG CELL DNA and 1.2 PG/UG CELL DNA
- INTRACELLULAR HBV DNA MONO. (HBV; 50ng/ml): 2.1 PG/UG CELL DNA and 1.4 PG/UG CELL DNA
- INTRACELLULAR HBV DNA RI (HBV; 50ng/ml): 12 PG/UG CELL DNA and 18 PG/UG CELL DNA
- HBV DNA IN CULTURE MEDIUM DAY 0 (HBV; 50ng/ml): 120 pg/mL and 95 pg/mL
- HBV DNA IN CULTURE MEDIUM DAY 3 (HBV; 50ng/ml): 88 pg/mL and 75 pg/mL
- HBV DNA IN CULTURE MEDIUM DAY 6 (HBV; 50ng/ml): 55 pg/mL and 77 pg/mL
- HBV DNA IN CULTURE MEDIUM DAY 10 (HBV; 50ng/ml): 11 pg/mL and 6 pg/mL
- INTRACELLULAR HBV DNA INTEG. (HBV; 500ng/ml): 1.4 PG/UG CELL DNA and 1.5 PG/UG CELL DNA
- INTRACELLULAR HBV DNA MONO. (HBV; 500ng/ml): 1.8 PG/UG CELL DNA and 2.0 PG/UG CELL DNA
- HBV DNA IN CULTURE MEDIUM DAY 0 (HBV; 500ng/ml): 89 pg/mL and 90 pg/mL
- HBV DNA IN CULTURE MEDIUM DAY 3 (HBV; 500ng/ml): 41 pg/mL and 55 pg/mL
- HBV DNA IN CULTURE MEDIUM DAY 10 (HBV; 500ng/ml): 0.1 pg/mL and 0.2 pg/mL
- INTRACELLULAR HBV DNA INTEG. (HBV; 5 ug/ml): 1.0 PG/UG CELL DNA and 1.6 PG/UG CELL DNA
- INTRACELLULAR HBV DNA MONO. (HBV; 5 ug/ml): 1.9 PG/UG CELL DNA and 1.7 PG/UG CELL DNA
- HBV DNA IN CULTURE MEDIUM DAY 0 (HBV; 5 ug/ml): 87 pg/mL and 88 pg/mL
- HBV DNA IN CULTURE MEDIUM DAY 3 (HBV; 5 ug/ml): 16 pg/mL and 24 pg/mL
- HBV DNA IN CULTURE MEDIUM DAY 6 (HBV; 5 ug/ml): 0.3 pg/mL and 0.4 pg/mL
- HBV DNA IN CULTURE MEDIUM DAY 10 (HBV; 5 ug/ml): 0 pg/mL
- MIC (HBV; Hepatitis B virus, 240 h, HBV replication in 2.2.15 cells, read-out: minimal inhibitory concentration): ~0.05 µg/mL (≈ 0.188 µM)
- Drug Cytotoxicity (Gross Morphology) ([2]; 0.32 µg/mL): 0
- Drug Cytotoxicity (Gross Morphology) ([2]; 3.2 µg/mL): v. sl. toxicity
- Drug Cytotoxicity (Gross Morphology) ([2]; 10 µg/mL): sl. toxicity

Compound: Nc1ncnc2c1ncn2[C@@H]1O[C@H](COP(=O)(O)O)[C@@H](O)[C@@H]1O [ARA-AMP, adenine arabinoside monophosphate, reference compound]
- INTRACELLULAR HBV DNA INTEG. (HBV; 300 UG/ML): 1.3 PG/UG CELL DNA and 1.1 PG/UG CELL DNA
- INTRACELLULAR HBV DNA MONO. (HBV; 300 UG/ML): 0.1 PG/UG CELL DNA
- INTRACELLULAR HBV DNA RI (HBV; 300 UG/ML): 0.2 PG/UG CELL DNA and 0.3 PG/UG CELL DNA
- HBV DNA IN CULTURE MEDIUM DAY 0 (HBV; 300 UG/ML): 100 pg/mL and 95 pg/mL
- HBV DNA IN CULTURE MEDIUM DAY 3 (HBV; 300 UG/ML): 25 pg/mL and 30 pg/mL
- HBV DNA IN CULTURE MEDIUM DAY 6 (HBV; 300 UG/ML): 0 pg/mL
- HBV DNA IN CULTURE MEDIUM DAY 10 (HBV; 300 UG/ML): 0 pg/mL

Compound: Nc1nc2c(ncn2COCCO)c(=O)[nH]1 [Acyclovir, acyloguanosine, reference compound]
- VR (HSV-1 (strain 377, TK+)): 5.7-6.5
- EC50 (HSV-1 (strain 377, TK+)): 1.5 to 2.9 µg/mL (≈ 6.66 to 12.9 µM)
- VR (HSV-2 (strain MS, TK+)): 4.5
- EC50 (HSV-2 (strain MS, TK+)): 5.3 µg/mL (≈ 23.5 µM)
